The target of one test is T1, Glucocorticoid receptor (Homo sapiens, UniProt P04150).
T1 sequence (P04150 whole entry): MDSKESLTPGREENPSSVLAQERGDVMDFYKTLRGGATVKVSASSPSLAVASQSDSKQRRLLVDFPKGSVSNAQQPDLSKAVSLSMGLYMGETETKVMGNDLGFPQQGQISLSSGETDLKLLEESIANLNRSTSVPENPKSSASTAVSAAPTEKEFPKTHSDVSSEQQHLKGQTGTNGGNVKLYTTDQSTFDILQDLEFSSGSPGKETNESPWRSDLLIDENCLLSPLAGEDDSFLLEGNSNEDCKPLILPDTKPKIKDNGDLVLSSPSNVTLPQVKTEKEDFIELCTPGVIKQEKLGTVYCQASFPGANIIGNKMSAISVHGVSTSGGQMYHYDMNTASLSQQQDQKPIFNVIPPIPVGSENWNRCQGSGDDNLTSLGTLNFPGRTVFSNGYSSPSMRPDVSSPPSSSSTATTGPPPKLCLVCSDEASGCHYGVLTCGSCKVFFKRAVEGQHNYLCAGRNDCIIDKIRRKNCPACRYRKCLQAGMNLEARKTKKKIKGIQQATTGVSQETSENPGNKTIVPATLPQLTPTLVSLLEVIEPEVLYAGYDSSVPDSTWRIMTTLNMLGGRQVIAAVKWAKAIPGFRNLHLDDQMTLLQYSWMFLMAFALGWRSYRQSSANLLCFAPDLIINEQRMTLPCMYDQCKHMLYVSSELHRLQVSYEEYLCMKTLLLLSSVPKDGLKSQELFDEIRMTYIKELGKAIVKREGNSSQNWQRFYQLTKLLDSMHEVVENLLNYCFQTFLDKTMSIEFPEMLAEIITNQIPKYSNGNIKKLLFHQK
It is filed as functional.

The target in test [1] is T2, Oxysterols receptor LXR-beta (Homo sapiens, UniProt P55055).
T2 sequence (P55055 whole entry): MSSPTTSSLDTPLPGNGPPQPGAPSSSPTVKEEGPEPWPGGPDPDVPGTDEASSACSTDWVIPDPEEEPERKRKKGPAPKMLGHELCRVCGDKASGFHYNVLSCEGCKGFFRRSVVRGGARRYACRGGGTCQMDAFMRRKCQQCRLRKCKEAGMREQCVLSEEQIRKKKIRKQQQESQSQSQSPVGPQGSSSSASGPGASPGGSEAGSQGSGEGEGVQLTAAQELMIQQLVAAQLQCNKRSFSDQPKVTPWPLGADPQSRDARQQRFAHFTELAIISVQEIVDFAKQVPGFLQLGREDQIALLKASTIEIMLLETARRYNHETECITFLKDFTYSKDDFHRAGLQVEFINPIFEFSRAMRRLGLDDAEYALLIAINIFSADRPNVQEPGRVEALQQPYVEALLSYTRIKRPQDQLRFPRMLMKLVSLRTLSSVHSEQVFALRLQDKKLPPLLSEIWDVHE
The format is functional.

Test [2] deals with T3, Retinoic acid receptor gamma (Homo sapiens, UniProt P13631).
T3 sequence (P13631 whole entry): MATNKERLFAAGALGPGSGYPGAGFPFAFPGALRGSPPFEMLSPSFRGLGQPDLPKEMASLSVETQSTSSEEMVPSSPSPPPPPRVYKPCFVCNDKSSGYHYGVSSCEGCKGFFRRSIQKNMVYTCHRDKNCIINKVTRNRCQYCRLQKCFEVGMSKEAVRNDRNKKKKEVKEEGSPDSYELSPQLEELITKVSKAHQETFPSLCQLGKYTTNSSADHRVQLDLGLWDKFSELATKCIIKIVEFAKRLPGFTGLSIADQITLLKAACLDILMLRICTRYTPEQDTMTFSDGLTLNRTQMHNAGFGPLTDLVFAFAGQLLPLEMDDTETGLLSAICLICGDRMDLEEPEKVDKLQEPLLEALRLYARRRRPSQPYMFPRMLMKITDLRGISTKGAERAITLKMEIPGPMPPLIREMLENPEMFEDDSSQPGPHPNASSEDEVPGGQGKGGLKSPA
The format is functional, cell-based.

For the next test, the target named is T4, Androgen receptor (Homo sapiens, UniProt P10275).
T4 sequence (P10275 whole entry): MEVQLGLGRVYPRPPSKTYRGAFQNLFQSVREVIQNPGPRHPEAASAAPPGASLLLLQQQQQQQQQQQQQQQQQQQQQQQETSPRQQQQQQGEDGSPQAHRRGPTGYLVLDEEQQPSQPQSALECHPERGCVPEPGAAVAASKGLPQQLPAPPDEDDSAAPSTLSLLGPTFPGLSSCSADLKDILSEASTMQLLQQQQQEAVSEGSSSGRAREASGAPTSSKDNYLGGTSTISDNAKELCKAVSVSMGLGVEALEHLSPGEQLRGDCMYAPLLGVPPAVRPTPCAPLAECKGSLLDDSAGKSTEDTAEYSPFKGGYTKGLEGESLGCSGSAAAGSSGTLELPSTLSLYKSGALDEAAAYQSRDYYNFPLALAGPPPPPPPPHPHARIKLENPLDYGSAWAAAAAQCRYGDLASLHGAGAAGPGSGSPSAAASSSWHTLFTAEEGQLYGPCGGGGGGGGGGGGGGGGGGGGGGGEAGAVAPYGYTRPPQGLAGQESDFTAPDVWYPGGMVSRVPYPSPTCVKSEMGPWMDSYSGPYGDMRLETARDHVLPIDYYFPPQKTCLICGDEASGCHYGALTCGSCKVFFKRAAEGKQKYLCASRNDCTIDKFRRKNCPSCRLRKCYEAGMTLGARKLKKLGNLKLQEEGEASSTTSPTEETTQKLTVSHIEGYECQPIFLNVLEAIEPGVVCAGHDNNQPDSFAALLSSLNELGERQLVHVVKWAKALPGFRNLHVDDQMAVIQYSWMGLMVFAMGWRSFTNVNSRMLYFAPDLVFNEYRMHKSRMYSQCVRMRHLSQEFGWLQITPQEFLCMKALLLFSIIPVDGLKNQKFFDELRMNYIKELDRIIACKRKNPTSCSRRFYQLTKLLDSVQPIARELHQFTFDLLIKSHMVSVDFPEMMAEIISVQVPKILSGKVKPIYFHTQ

The text below walks through data of ChEMBL document CHEMBL5291721, “A preclinical secondary pharmacology resource illuminates target-adverse drug reaction associations of marketed drugs” (Nat Commun, 2023).

Bounds are passed on as bounds.
Note: assay procedure not described here.

In general, AC50 refers to the concentration at which the activity in the assay is half-maximal. On to `[H]/N=C(/N)c1ccc(NCc2nc3cc(C(=O)N(CCC(=O)O)c4ccccn4)ccc3n2C)cc1` [DABIGATRAN], for which the AC50 at Glucocorticoid receptor was > 30 µM.

On to `CC(C)c1c(C(=O)Nc2ccccc2)c(-c2ccccc2)c(-c2ccc(F)cc2)n1CC[C@@H](O)C[C@@H](O)CC(=O)O` [ATORVASTATIN], for which the AC50 in test [1] and in test [2] was > 30 µM in each case.

Take BIVALIRUDIN: on Androgen receptor, the AC50 was > 30 µM.
